Data: US5457092A, “Methods of promoting bone growth in mammals comprising administration of modified parathyroid hormone” (Gesellschaft fur Biotechnologische Forschung mbH (GBF), priority 1987, dated 1995)

Columns and labels:
[1] = tested on: rat organs (epiphysis, diaphysis, kidney); assay: [3H]thymidine incorporation into DNA in rat organs after i.p. injection; format: in vivo; settings: 2 μg/rat; 24 h
[2] = tested on: osteoblast enriched rat embryo calvaria cell cultures; assay: DNA synthesis ([3H]thymidine incorporation) in rat embryo calvaria cell cultures; format: cell-based
Procedure: (§1) FIG. 10 is a graphical representation showing the dose dependent stimulation by bPTH (1-84) of osteoblast enriched rat embryo calvaria cell cultures. Experimental details for the determination of cyclic AMP (.quadrature.) (15 min after stimulation) and incorporation of [^3 H]thymidine into DNA ( ) and CK ( ) specific activity (24 h after stimulation) are given below. The results are means ±S.E.M., N≥5. In several cases the S.E.M. was less than the size of the symbol. Control values were: cyclic AMP, 25±5 pmol/mg of protein; DNA, 240±30 c.p.m./μg of DNA; CK, 200±20 nmol/min per mg of protein. Statistical significance of differences between treated and corresponding control groups by Student's T test: *P<0.05; **P<0.01.

[3] = tested on: ROS 17/2.8 osteoblast-like cells; assay: CK specific activity in ROS 17/2.8 osteoblast-like cells; format: cell-based, rat; settings: 40 nM; control 698 ± 70 nmol/min per mg of protein
[4] = tested on: rat organs (epiphysis, diaphysis, kidney); assay: [3H]thymidine incorporation into DNA in rat organs after i.p. injection; format: in vivo; settings: 2 μg/rat
Procedure: FIG. 12 is a graph showing the time course of stimulation by hPTH (1-34) of DNA synthesis in rat organs. Female rats (20-25 days old) were injected i.p. with hPTH-(1-34) (2 μg/rat). At 2 h before the times indicated, the rats were killed and organs were removed and incubated in 2 ml of Dulbecco's modified Eagle's medium containing 5 μl of [^3 H]thymidine. (Amersham: 5 Ci/mmol) for 2 h, then washed with medium and homogenized in deionized distilled water. The total uptake of [^3 H]thymidine and acid-insoluble radioactivity was measured, as well as DNA content, as described below. , Diaphysis; O, epiphysis; Δ; kidney. P<0.01 versus controls.
The pieces were then incubated for 2 h more (the time indicated in FIG. 12) with [^3 H]thymidine (5 μci/ml; 5 Ci/mmol) at 37° C. in Dulbecco's modified Eagle's medium under an atmosphere Of […] /95% air. Total [^3 H]thymidine uptake and incorporation into trichloroacetic acid-insoluble material was measured as described in Biochem. J., 214 (1983) 293-298 (16; Somjen et al.). At no time including the 22 24 h pulse, was there any significant change in the total uptake of [^3 H]thymidine which reflects changes in the thymidine pool which, in turn, could account for changes in incorporation. DNA was determined by the Burton method; cf. Biochem. J., 62 (1956) 315-323 (17; Burton).
To corroborate that under the circumstances of these experiments the increase in CK specific activity in bone is indeed a valid marker of cell proliferation, changes in DNA synthesis were measured by [^3 H]thymidine incorporation; cf. Biochem. J., 272 (1990) 781-785 (18; Somjen et al.). The earliest time at which PTH increased [^3 H]thymidine incorporation was determined by in-jecting rats with an optimal dose of 2 μp of PTH(1-34)/rat, equivalent to 13 nM (FIG. 14) and measuring 2 h pulses of [^3 H)thymidine incorporation into DNA (FIG. 12).

[5] = tested on: osteoblast enriched rat embryo calvaria cell cultures; assay: CK specific activity in rat embryo calvaria cell cultures; format: cell-based; settings: treated for 24 h
Procedure: as §1
(§2) Rat calvaria cultures were treated with fragments of PTH derived from the central portion of the molecule.

[6] = tested on: rat organs (epiphysis, diaphysis, kidney); assay: CK specific activity in rat organs after i.p. injection; format: in vivo; settings: i.p., 4 h later
Procedure: FIG. 13 is a graph showing the time-dependent stimulation by hPTH (28-48) of CK specific activity in rat organs. Female rats (20-25 days old) were injected i.p. with hPTH-(28-48) (1.25 μg/rat). Experimental details are as described for FIG. 10. (a) Diaphysis, (b) epiphysis, (c) kidney. *P<0.05, **P<0.01 versus controls.
FIG. 14 is a graph showing the dose-dependent stimulation of CK specific activity by hPTH (1-34) in rat organs. Female rats (20-25 days old) were injected i.p. with hPTH-(1-34). At 4 h later, rats were killed and extracts were prepared and assayed as described below. Experimental details are as described for FIG. 10 (a) Diaphysis, (b) epiphysis, (c) kidney. *P<0.05, ** P<0.01 versus controls.
FIG. 15 is a graph showing the dose-dependent stimulation of CK specific activity by hPTH (28-48) in rat organs. Female rats (20-25 days old) were injected i.p. with hPTH-(28-48). Experimental details are as described for FIG. 13 (a) Diaphysis, (b) epiphysis, (c) kidney. *P<0.05, **P<0.01 versus controls.
FIG. 16 is a graph showing the […] stimulation by bPTH (1-84) of CK specific activity in rat organs. Female rats (20-25 days old) were injected i.p. with bPTH-(1-84) (3.5 μg/rat). At the times indicated, the rats were killed and the diaphyses (a) and epiphyses (b) of long bones as well as the kidneys (c) were collected and homogenized. Extracts were prepared and assayed as described below. Results are means ±S.E.M for π=5. Statistical significance of differences between treated and control groups by Student's T test: *P<0.05; **P<0.01. Note that the activity scales differ for different organs.
Kidneys, tibia and femur were excised; the epiphyses or diaphyses of the long bones were collected and washed thoroughly with cold 0.9% NaCl. The bones were split open lengthwise and the marrow was scraped out. Organs were homogenized in ice-cold buffer containing 50 mM-Tris/HCl (pH 6.8), 5 mH-magnesium acetate. 2.5 mM-dithiothreitol, 0.4 mM-EDTA and 250 mM-sucrose using a Polytron homogenizer in 10 s bursts with intervening cooling periods. Supernatant extracts were obtained by centrifugation at 12000 g for 5 min at 4° C. CK activity was measured at 30° C. in a Gilford 250 automatic recording spectrophotometer at 340 nm using a coupled assay for ATP, in 0.5 ml of incubation mixture containing 50 mM-imidazole acetate buffer (pH 6.7), 25 mM-phosphocreatine, 20 mM-N-acetylcysteine, 20 mM-D-glucose, 10 mM-magnesium acetate, 5 mM-EDTA, 2 mM-ADP, 2 mM-NAD+, 2 mM-dithiothreitol, 50 μM-diadenosine pentaphosphate (adenylate kinase inhibitor), 5 μg of bovine serum albumin. 1.2 units of glucose-6-phosphate dehydrogenase and 0.8 units of hexokinase. Protein was determined by the Coomassie Brilliant Blue dye-binding method, with bovine serum albumin as the standard.

[7] = tested on: ROS 17/2.8 osteoblast-like cells; assay: Cyclic AMP production in ROS 17/2.8 osteoblast-like cells; format: cell-based, rat
Procedure: When cultures of the widely used model for osteoblasts, the osteoblast-likeclone of rat osteosarcoma, ROS 17/2.8 (Endocrinology (Baltimore), 107 (1980) 1494-1503=12; Majeska et al.), were incubated with full-length PTH and PTH fragments (Table 4), cyclic AMP production was stimulated only by bPTH(1-84) and hPTH(1-34), whereas hPTH(25-39), hPTH(27-48), hPTH(28-48) and hPTH(34-47) were ineffective.

[8] = tested on: osteoblast enriched rat embryo calvaria cell cultures; assay: Cyclic AMP production in rat embryo calvaria cell cultures; format: cell-based; settings: treated for 15 min
Procedure: as §1, §2

[9] = tested on: ROS 17/2.8 osteoblast-like cells; assay: DNA synthesis in ROS 17/2.8 osteoblast-like cells; format: cell-based, rat; settings: 40 nM; control 392 ± 58 c.p.m./μg of DNA

CC[C@H](C)[C@H](NC(=O)[C@H](CCC(=O)O)NC(=O)[C@H](CO)NC(=O)[C@@H](NC(=O)[C@@H](N)CO)C(C)C)C(=O)N[C@@H](CCC(N)=O)C(=O)N[C@@H](CC(C)C)C(=O)N[C@@H](CCSC)C(=O)N[C@@H](Cc1c[nH]cn1)C(=O)N[C@@H](CC(N)=O)C(=O)N[C@@H](CC(C)C)C(=O)NCC(=O)N[C@@H](CCCCN)C(=O)N[C@@H](Cc1c[nH]cn1)C(=O)N[C@@H](CC(C)C)C(=O)N[C@@H](CC(N)=O)C(=O)N[C@@H](CO)C(=O)N[C@@H](CCSC)C(=O)N[C@@H](CCC(=O)O)C(=O)N[C@@H](CCCNC(=N)N)C(=O)N[C@H](C(=O)N[C@@H](CCC(=O)O)C(=O)N[C@@H](Cc1c[nH]c2ccccc12)C(=O)N[C@@H](CC(C)C)C(=O)N[C@@H](CCCNC(=N)N)C(=O)N[C@@H](CCCCN)C(=O)N[C@@H](CCCCN)C(=O)N[C@@H](CC(C)C)C(=O)N[C@@H](CCC(N)=O)C(=O)N[C@@H](CC(=O)O)C(=O)N[C@H](C(=O)N[C@@H](Cc1c[nH]cn1)C(=O)N[C@@H](CC(N)=O)C(=O)N[C@@H](Cc1ccccc1)C(=O)O)C(C)C)C(C)C [hPTH(1-34)]
DNA synthesis in the diaphysis and the epiphysis at 24 h (in words) [1]: significant increase
stimulation of DNA synthesis (in words) [2]: maximal
CK specific activity, effect of fragment (experimental value/control value) [3]: 1.83 ± 0.09
DNA synthesis in the kidney over time (in words) ([4]; equivalent to 13 nM, 2 h pulses): no increase in DNA synthesis at any time
DNA synthesis in the diaphysis and the epiphysis at 4 or 16 h (in words) ([4]; 4 or 16 h): no change
increase of CK activity (in words) [5]: maximally active
dose of maximal effect on CK specific activity [6]: 2 μg/rat
dose giving a significant increase in CK specific activity in all organs ([6]; diaphysis, epiphysis, kidney): 0.4 μg/rat
stimulation of cyclic AMP production (in words) [7]: stimulated
Cyclic AMP, effect of fragment (experimental value/control value) ([7]; 40 nM, control 29 ± 5.2 pmol/mg of protein): 4.67 ± 0.09
stimulation of cyclic AMP production (in words) [8]: able to stimulate cyclic AMP formation
[^3 H]Thymidine incorporation, effect of fragment (experimental value/control value) [9]: 2.06 ± 0.09
